In this test the test system is MV-4-11 cells. In words: Gene expression microarray analysis (Affymetrix PrimeView) and GSEA. The class given is cell-based, human. On the set-up: RFU PODN (11730768_x_at) / Fold change /veh PODN (11730768_x_at) / RFU LINC00158 (11744669_a_at) / Fold change /veh LINC00158 (11744669_a_at) / RFU DUSP10 (11751237_a_at) / Fold change /veh DUSP10 (11751237_a_at) / RFU ID3 (11757404_x_at) / Fold change /veh ID3 (11757404_x_at) / RFU PLEKHG5 (11737974_s_at) / Fold change /veh PLEKHG5 (11737974_s_at) / RFU LRRC4B (11730491_at) / Fold change /veh LRRC4B (11730491_at) / RFU GIMAP4 (11747438_a_at) / Fold change /veh GIMAP4 (11747438_a_at) / RFU KRT8 (11758183_x_at) / Fold change /veh KRT8 (11758183_x_at) / RFU CNN1 (11734310_a_at) / Fold change /veh CNN1 (11734310_a_at) / RFU VPS37D (11726825_at) / Fold change /veh VPS37D (11726825_at) / RFU C10orf10 (11716522_x_at) / Fold change /veh C10orf10 (11716522_x_at) / RFU KIR2DL2 /// KIR2DL4 /// KIR2DL5A /// KIR2DL5B /// KIR2DS1 /// KIR2DS2 /// KIR2DS3 /// KIR2DS4 /// KIR3DL3 /// KIR3DL3 /// KIR3DS1 (11738374_at) / Fold change /veh KIR2DL2 /// KIR2DL4 /// KIR2DL5A /// KIR2DL5B /// KIR2DS1 /// KIR2DS2 /// KIR2DS3 /// KIR2DS4 /// KIR3DL3 /// KIR3DL3 /// KIR3DS1 (11738374_at) / RFU C1QL1 (11718748_at) / Fold change /veh C1QL1 (11718748_at) / RFU TMPRSS4 (11747572_a_at) / Fold change /veh TMPRSS4 (11747572_a_at) / RFU HAMP (11756126_x_at) / Fold change /veh HAMP (11756126_x_at) / RFU RNFT2 (11725882_a_at) / Fold change /veh RNFT2 (11725882_a_at) / RFU NR4A2 (11747474_a_at) / Fold change /veh NR4A2 (11747474_a_at) / RFU ABCC12 (11746883_a_at) / Fold change /veh ABCC12 (11746883_a_at) / RFU TMEM136 (11760407_x_at) / Fold change /veh TMEM136 (11760407_x_at) / RFU CLDN22 /// WWC2 (11732394_at) / Fold change /veh CLDN22 /// WWC2 (11732394_at) / RFU HLA-DPB1 (11760878_x_at) / Fold change /veh HLA-DPB1 (11760878_x_at) / RFU SPINT1 (11716480_a_at) / Fold change /veh SPINT1 (11716480_a_at) / RFU GAP43 (11754022_s_at) / Fold change /veh GAP43 (11754022_s_at) / RFU A4GNT (11735810_at) / Fold change /veh A4GNT (11735810_at) / RFU PRB3 (11715151_x_at) / Fold change /veh PRB3 (11715151_x_at) / RFU TUBB4B (11761932_at) / Fold change /veh TUBB4B (11761932_at) / RFU CAPN14 (11732068_a_at) / Fold change /veh CAPN14 (11732068_a_at) / RFU TMCC2 (11721928_a_at) / Fold change /veh TMCC2 (11721928_a_at) / RFU IRGQ (11745062_a_at) / Fold change /veh IRGQ (11745062_a_at) / RFU FAM174B (11720279_a_at) / Fold change /veh FAM174B (11720279_a_at) / RFU TMPRSS4 (11748680_a_at) / Fold change /veh TMPRSS4 (11748680_a_at) / RFU FAM212B (11763350_a_at) / Fold change /veh FAM212B (11763350_a_at) / RFU PLEKHG5 (11743358_a_at) / Fold change /veh PLEKHG5 (11743358_a_at) / RFU ZSCAN30 (11745921_a_at) / Fold change /veh ZSCAN30 (11745921_a_at) / RFU CMKLR1 (11741424_a_at) / Fold change /veh CMKLR1 (11741424_a_at) / RFU LOC101060620 /// MAPK8IP1 (11723275_at) / Fold change /veh LOC101060620 /// MAPK8IP1 (11723275_at) / RFU SPTSSB (11747773_x_at) / Fold change /veh SPTSSB (11747773_x_at) / RFU PRSS12 (11739890_at) / Fold change /veh PRSS12 (11739890_at) / RFU BIN1 (11741810_x_at) / Fold change /veh BIN1 (11741810_x_at) / RFU WNT11 (11732464_a_at) / Fold change /veh WNT11 (11732464_a_at) / RFU C10orf10 (11716521_a_at) / Fold change /veh C10orf10 (11716521_a_at) / RFU C5orf56 (11738089_at) / Fold change /veh C5orf56 (11738089_at) / RFU CYB561 (11721691_x_at) / Fold change /veh CYB561 (11721691_x_at) / RFU ANKRD19P (11752326_a_at) / Fold change /veh ANKRD19P (11752326_a_at) / RFU OR2T12 /// OR2T33 /// OR2T8 (11738714_s_at) / Fold change /veh OR2T12 /// OR2T33 /// OR2T8 (11738714_s_at) / RFU VCAN (11748164_a_at) / Fold change /veh VCAN (11748164_a_at) / RFU JSRP1 (11732532_at) / Fold change /veh JSRP1 (11732532_at) / RFU KRTAP10-11 (11738290_x_at) / Fold change /veh KRTAP10-11 (11738290_x_at) / RFU MYO3A (11730013_a_at) / Fold change /veh MYO3A (11730013_a_at) / RFU EBF3 (11725865_a_at) / Fold change /veh EBF3 (11725865_a_at) / RFU CAMK2N1 (11719241_x_at) / Fold change /veh CAMK2N1 (11719241_x_at) / RFU C5orf56 (11738088_a_at) / Fold change /veh C5orf56 (11738088_a_at) / RFU OLFML3 (11715873_a_at) / Fold change /veh OLFML3 (11715873_a_at) / RFU LOC100653217 /// NTM (11731650_a_at) / Fold change /veh LOC100653217 /// NTM (11731650_a_at) / RFU MAPK11 (11762145_a_at) / Fold change /veh MAPK11 (11762145_a_at) / RFU FIZ1 (11724087_x_at) / Fold change /veh FIZ1 (11724087_x_at) / RFU OASL (11726364_x_at) / Fold change /veh OASL (11726364_x_at) / RFU SOX15 (11748057_x_at) / Fold change /veh SOX15 (11748057_x_at) / RFU CD79A (11719716_a_at) / Fold change /veh CD79A (11719716_a_at) / RFU HIST1H1D (11736915_at) / Fold change /veh HIST1H1D (11736915_at) / RFU CASKIN2 (11723855_a_at) / Fold change /veh CASKIN2 (11723855_a_at) / RFU LOC730098 (11760151_x_at) / Fold change /veh LOC730098 (11760151_x_at) / RFU OR4N2 (11742367_at) / Fold change /veh OR4N2 (11742367_at) / RFU PRRT2 (11749266_a_at) / Fold change /veh PRRT2 (11749266_a_at) / RFU SNX32 (11753110_a_at) / Fold change /veh SNX32 (11753110_a_at) / RFU CDHR5 (11726645_a_at) / Fold change /veh CDHR5 (11726645_a_at) / RFU RCAN1 (11760418_a_at) / Fold change /veh RCAN1 (11760418_a_at) / RFU FAM167A (11723789_a_at) / Fold change /veh FAM167A (11723789_a_at) / RFU FAM26E (11764081_at) / Fold change /veh FAM26E (11764081_at) / RFU ISYNA1 (11749810_s_at) / Fold change /veh ISYNA1 (11749810_s_at) / RFU ACY1 (11761880_at) / Fold change /veh ACY1 (11761880_at) / RFU 11764098_at / Fold change /veh 11764098_at / RFU SAMD14 (11745864_x_at) / Fold change /veh SAMD14 (11745864_x_at) / RFU NPB (11741838_a_at) / Fold change /veh NPB (11741838_a_at) / RFU TMPRSS6 (11731388_a_at) / Fold change /veh TMPRSS6 (11731388_a_at) / RFU KRTAP10-2 (11738614_at) / Fold change /veh KRTAP10-2 (11738614_at) / RFU ARHGAP8 /// PRR5-ARHGAP8 (11727945_x_at) / Fold change /veh ARHGAP8 /// PRR5-ARHGAP8 (11727945_x_at) / RFU KRTAP5-7 /// NADSYN1 (11734609_at) / Fold change /veh KRTAP5-7 /// NADSYN1 (11734609_at) / RFU RASL12 (11751679_a_at) / Fold change /veh RASL12 (11751679_a_at) / RFU CDKN2B (11736163_a_at) / Fold change /veh CDKN2B (11736163_a_at) / RFU PRF1 (11729649_at) / Fold change /veh PRF1 (11729649_at) / RFU, ZNF638 /// ZNF638-IT1 / Fold change vs veh, ZNF638 /// ZNF638-IT1 / RFU, PANK3 / Fold change vs veh, PANK3 / RFU, SH3YL1 / Fold change vs veh, SH3YL1 / RFU, ZEB2 / Fold change vs veh, ZEB2 / RFU, NRIP1 / Fold change vs veh, NRIP1 / RFU, PTTG1IP / Fold change vs veh, PTTG1IP / RFU, CAPN2 / Fold change vs veh, CAPN2 / RFU, MED14 / Fold change vs veh, MED14 / RFU, SNORA58 / Fold change vs veh, SNORA58 / RFU, C1orf63 / Fold change vs veh, C1orf63 / RFU, LRRFIP1 / Fold change vs veh, LRRFIP1 / RFU, NDUFAF7 / Fold change vs veh, NDUFAF7 / RFU, SLC12A2 / Fold change vs veh, SLC12A2 / RFU, IBTK / Fold change vs veh, IBTK / RFU, ESF1 / Fold change vs veh, ESF1 / Fold change vs veh, TMEM50B / RFU, TAOK1 / Fold change vs veh, TAOK1 / RFU, ACBD3 / Fold change vs veh, ACBD3 / RFU, TMA16 / Fold change vs veh, TMA16 / RFU, RWDD3 / Fold change vs veh, RWDD3 / RFU, BCAT1 / Fold change vs veh, BCAT1 / RFU, EDEM3 / Fold change vs veh, EDEM3 / RFU, TMEM33 / Fold change vs veh, TMEM33 / RFU, WDR75 / Fold change vs veh, WDR75 / RFU, AHCTF1 / Fold change vs veh, AHCTF1 / RFU, TFRC / Fold change vs veh, TFRC / RFU, ZDHHC17 / Fold change vs veh, ZDHHC17 / RFU, NOM1 / Fold change vs veh, NOM1 / RFU, ARL8B / Fold change vs veh, ARL8B / RFU, ZBTB11 / Fold change vs veh, ZBTB11 / RFU, TAMM41 / Fold change vs veh, TAMM41 / RFU, KIAA1704 /// LOC100996395 / Fold change vs veh, KIAA1704 /// LOC100996395 / RFU, ING1 / Fold change vs veh, ING1 / RFU, TRMT61B / Fold change vs veh, TRMT61B / RFU, FUBP3 / Fold change vs veh, FUBP3 / RFU, TP53 / Fold change vs veh, TP53 / RFU, TNKS2 / Fold change vs veh, TNKS2 / RFU, ZFP14 / Fold change vs veh, ZFP14 / RFU, ACTR2 / Fold change vs veh, ACTR2 / RFU, PPP3R1 / Fold change vs veh, PPP3R1 / RFU, PIK3R1 / Fold change vs veh, PIK3R1 / RFU, HNRNPA1 / Fold change vs veh, HNRNPA1 / RFU, RNF170 / Fold change vs veh, RNF170 / RFU, ZNF28 / Fold change vs veh, ZNF28 / RFU, RNGTT / Fold change vs veh, RNGTT / RFU, OGT / Fold change vs veh, OGT / RFU, BRD1 / Fold change vs veh, BRD1 / RFU, MARS / Fold change vs veh, MARS / RFU, ZNF655 / Fold change vs veh, ZNF655 / RFU, FAHD1 / Fold change vs veh, FAHD1 / RFU, BDP1 / Fold change vs veh, BDP1 / RFU, LRRCC1 / Fold change vs veh, LRRCC1 / RFU, ARID1A / Fold change vs veh, ARID1A / RFU, ZNF146 / Fold change vs veh, ZNF146 / RFU, ZNF330 / Fold change vs veh, ZNF330 / RFU, GPN3 / Fold change vs veh, GPN3 / RFU, C9orf123 / Fold change vs veh, C9orf123 / RFU, N4BP2L2 / Fold change vs veh, N4BP2L2 / RFU, ARFIP1 / Fold change vs veh, ARFIP1 / RFU, FAM179B / Fold change vs veh, FAM179B / RFU, BCL10 / Fold change vs veh, BCL10 / RFU, UHRF1BP1L / Fold change vs veh, UHRF1BP1L / RFU, BET1 / Fold change vs veh, BET1 / RFU, CNOT2 / Fold change vs veh, CNOT2 / RFU, ZNF268 / Fold change vs veh, ZNF268 / Fold change vs veh, ZNF507 / RFU, DGCR2 / Fold change vs veh, DGCR2 / RFU, WDSUB1 / Fold change vs veh, WDSUB1 / Fold change vs veh, HSP90B1 /// MIR3652 / RFU, ADSS / Fold change vs veh, ADSS / RFU, GK / Fold change vs veh, GK / RFU, ZNF148 / Fold change vs veh, ZNF148 / RFU, TAF9 / Fold change vs veh, TAF9 / RFU, SLC1A5 / Fold change vs veh, SLC1A5 / RFU, SLMO2 / Fold change vs veh, SLMO2 / RFU, ABCC4 / Fold change vs veh, ABCC4 / RFU, LOC101060439 /// RAP1B / Fold change vs veh, LOC101060439 /// RAP1B / RFU, RFX7 / Fold change vs veh, RFX7 / RFU, GTPBP10 / Fold change vs veh, GTPBP10 / RFU, CNEP1R1 / Fold change vs veh, CNEP1R1 / RFU, BIVM-ERCC5 /// ERCC5 / Fold change vs veh, BIVM-ERCC5 /// ERCC5 / RFU, ILF3 / Fold change vs veh, ILF3 / RFU 11762660_at / Fold change /veh 11762660_at / RFU VCAN (11757783_s_at) / Fold change /veh VCAN (11757783_s_at) / RFU DDX43 (11728927_at) / Fold change /veh DDX43 (11728927_at) / RFU KRT8 (11758188_x_at) / Fold change /veh KRT8 (11758188_x_at) / RFU NKD1 (11759106_at) / Fold change /veh NKD1 (11759106_at) / RFU SRD5A1 (11742802_a_at) / Fold change /veh SRD5A1 (11742802_a_at) / RFU TPSAB1 /// TPSB2 (11721975_s_at) / Fold change /veh TPSAB1 /// TPSB2 (11721975_s_at) / RFU GSTM3 (11746129_a_at) / Fold change /veh GSTM3 (11746129_a_at) / RFU IL23R (11737362_x_at) / Fold change /veh IL23R (11737362_x_at) / RFU TMEM51 (11727254_a_at) / Fold change /veh TMEM51 (11727254_a_at) / RFU PIWIL2 (11732686_x_at) / Fold change /veh PIWIL2 (11732686_x_at) / RFU ORM1 (11744905_x_at) / Fold change /veh ORM1 (11744905_x_at) / RFU CCDC152 (11743942_at) / Fold change /veh CCDC152 (11743942_at) / RFU ECM1 (11717891_a_at) / Fold change /veh ECM1 (11717891_a_at) / RFU IL23R (11748794_a_at) / Fold change /veh IL23R (11748794_a_at) / RFU TNFAIP8L3 (11732012_x_at) / Fold change /veh TNFAIP8L3 (11732012_x_at) / RFU MBOAT4 (11741988_at) / Fold change /veh MBOAT4 (11741988_at) / RFU 11764193_at / Fold change /veh 11764193_at / RFU TMEM53 (11763286_at) / Fold change /veh TMEM53 (11763286_at) / RFU MAGEB2 (11727129_at) / Fold change /veh MAGEB2 (11727129_at) / RFU TMEM200A (11744735_a_at) / Fold change /veh TMEM200A (11744735_a_at) / RFU CCDC152 (11751479_a_at) / Fold change /veh CCDC152 (11751479_a_at) / RFU FAM211A (11726209_a_at) / Fold change /veh FAM211A (11726209_a_at) / RFU RGS16 (11746705_a_at) / Fold change /veh RGS16 (11746705_a_at) / RFU VCAN (11755009_s_at) / Fold change /veh VCAN (11755009_s_at) / RFU RHOB (11743442_s_at) / Fold change /veh RHOB (11743442_s_at) / RFU RGS16 (11720943_a_at) / Fold change /veh RGS16 (11720943_a_at) / RFU RGS16 (11720944_at) / Fold change /veh RGS16 (11720944_at) / RFU, VPS4B / Fold change vs veh, VPS4B / RFU, CREB1 / Fold change vs veh, CREB1 / RFU, DNAJC13 / Fold change vs veh, DNAJC13 / RFU, GNAQ / Fold change vs veh, GNAQ / RFU, CDK5R1 / Fold change vs veh, CDK5R1 / RFU, ZRANB3 / Fold change vs veh, ZRANB3 / RFU, CUL4A / Fold change vs veh, CUL4A / RFU, CCNY / Fold change vs veh, CCNY / RFU, UFL1 / Fold change vs veh, UFL1 / RFU, COG3 / Fold change vs veh, COG3 / RFU, DIAPH2 / Fold change vs veh, DIAPH2 / RFU, SKA2 / Fold change vs veh, SKA2 / RFU, AFF3 / Fold change vs veh, AFF3 / RFU, LMF1 / Fold change vs veh, LMF1 / RFU, IPO11 / Fold change vs veh, IPO11 / RFU, DFFB / Fold change vs veh, DFFB / RFU, FOXP1 / Fold change vs veh, FOXP1 / RFU, CARD8 / Fold change vs veh, CARD8 / RFU, STRN3 / Fold change vs veh, STRN3 / RFU, ADK / Fold change vs veh, ADK / RFU, RASSF2 / Fold change vs veh, RASSF2 / RFU, WIPF1 / Fold change vs veh, WIPF1 / RFU, LARP1B / Fold change vs veh, LARP1B / RFU, RASA1 / Fold change vs veh, RASA1 / RFU, RB1 / Fold change vs veh, RB1 / RFU, PPFIA1 / Fold change vs veh, PPFIA1 / RFU, MAT2A / Fold change vs veh, MAT2A / RFU, CCT5 / Fold change vs veh, CCT5 / RFU, WDR92 / Fold change vs veh, WDR92 / RFU, CUX1 / Fold change vs veh, CUX1 / RFU, TTC7A / Fold change vs veh, TTC7A / RFU, TMEM135 / Fold change vs veh, TMEM135 / RFU, DEPTOR / Fold change vs veh, DEPTOR / RFU, CPM / Fold change vs veh, CPM / RFU, DNAJB6 / Fold change vs veh, DNAJB6 / RFU, CACNA2D3 / Fold change vs veh, CACNA2D3 / RFU, DTX4 / Fold change vs veh, DTX4 / RFU, TFCP2 / Fold change vs veh, TFCP2 / RFU, GMCL1 /// GMCL1P1 / Fold change vs veh, GMCL1 /// GMCL1P1 / RFU, AEBP2 / Fold change vs veh, AEBP2 / RFU, SNHG1 /// SNORD22 /// SNORD25 /// SNORD26 /// SNORD27 /// SNORD28 /// SNORD29 /// SNORD31 / Fold change vs veh, SNHG1 /// SNORD22 /// SNORD25 /// SNORD26 /// SNORD27 /// SNORD28 /// SNORD29 /// SNORD31 / Fold change (Aza/veh), C12orf56 (ProbeSet 11735607_a_at) / Fold change (ACY-1035/veh), C12orf56 (ProbeSet 11735607_a_at) / Fold change (Aza/veh), FGFR1OP (ProbeSet 11751329_s_at) / Fold change (ACY-1035/veh), FGFR1OP (ProbeSet 11751329_s_at) / Fold change (Aza/veh), VPS36 (ProbeSet 11739960_a_at) / Fold change (ACY-1035/veh), VPS36 (ProbeSet 11739960_a_at) / RFU SYPL1 (11715823_x_at) / Fold change /veh SYPL1 (11715823_x_at) / RFU IGFBP7 (11715501_s_at) / Fold change /veh IGFBP7 (11715501_s_at) / RFU REEP3 (11722064_at) / Fold change /veh REEP3 (11722064_at) / RFU IGLL1 (11728026_x_at) / Fold change /veh IGLL1 (11728026_x_at): dose or concentration left out as unconfirmed. To be noted: ProbeSet 11740011_at; LIST B.

For `Nc1ccc(-c2cccs2)cc1NC(=O)c1ccc2c(c1)cc(C1CC1)n2CCN1CCOCC1` [ACY-1035], the “RFU, ZFP14” value was determined as 75.53 RFU.

The values are drawn from publication PMC5218480 (PLoS ONE, 2017).
